Reference: PubChem BioAssay AID720588 (Broad Institute, 2013)
Calls of active or inactive are those of the source.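 How the source made its calls: active means fitted curve falls past a set limit of signal loss at no more than twice the top dose; inconclusive means flat fit between 30 and 70% signal loss, or poor fit; inactive means signal rise, flat within 30%, or crossing too high.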

Experiment: ATP-based viability loss in HEK293T cells – cell-based, CellTiter-Glo luminescence, cherry-pick, set 3, cytotoxicity control, dose response (AID 720588)
Settings: HEK293T viability, CellTiter-Glo ATP luminescence, 72 h; at 23.5 µM (top of the series)
For `CCCNC(=O)N1[C@H](C#N)[C@H](c2ccc(C#Cc3cccc(F)c3)cc2)[C@H]1CO`, the activity change, negative = cytotoxicity was -0.501% (inactive).
For `C[C@H](CO)N1C[C@H](C)[C@H](CN(C)Cc2ccccc2)Oc2ccc(NC(=O)CCCCCC(=O)Nc3ccccc3N)cc2CC1=O`, the activity change, negative = cytotoxicity was -0.084% (inactive).
In the case of `O=S(=O)(c1ccc(F)cc1)N1C[C@H]2[C@@H](c3ccccc31)[C@H](CO)N2Cc1ccccc1Cl`, the activity change, negative = cytotoxicity is reported as -5.62% (inactive).

Same assay, conditions: HEK293T viability, CellTiter-Glo ATP luminescence, 72 h; at 26 µM (top of the series)
With `COC(=O)Cc1ccc(NC(=O)c2ccccc2Cl)cc1` the activity change, negative = cytotoxicity was -2.38% (inactive).
With `COc1cc(-c2coc3c(C(=O)NCc4ccc(C(F)(F)F)cc4)cccc23)ccc1O` the activity change, negative = cytotoxicity was -23% (inactive).
In the case of `COc1ccc(/C=C/C(=O)c2cc(F)ccc2OC(=O)c2ccccc2OC)cc1OC`, the activity change, negative = cytotoxicity is reported as -12.6% (inactive).
With `Cc1ccc(NC(=O)CCN2CCCCC2)cc1` the activity change, negative = cytotoxicity was 17.2% (inactive).
For `CN1C(=O)c2cc(NC(=O)c3ccc(C(F)(F)F)cc3)ccc2OC[C@@H]2O[C@@H](CC(=O)NC3Cc4ccccc4C3)CC[C@H]21`, the activity change, negative = cytotoxicity was -32.5% (inactive).
With `Cc1ccsc1C(=O)OCC(=O)NCCC1=CCCCC1` the activity change, negative = cytotoxicity was -24.7% (inactive).
With `COC(=O)C[C@H]1CC[C@@H](NC(=O)Nc2ccc(C(F)(F)F)cc2)[C@H](CO)O1` the activity change, negative = cytotoxicity was 9.14% (inactive).
For `CC(=O)c1ccc(NC(=O)c2noc3c2CCC3)cc1`, the activity change, negative = cytotoxicity was -5.3% (inactive).
For `Cc1ccccc1N=CC1=C(O)c2ccccc2C1=O`, the activity change, negative = cytotoxicity was 1.79% (inactive).
In the case of `COc1ccc(CN(C)c2ncnc3sccc23)c(OC)c1OC`, the activity change, negative = cytotoxicity is reported as -29.1% (inactive).
For `COc1cccc(CN2CCC2(C)C(=O)Nc2cccc3cccnc23)c1F` (configuration not stated), the activity change, negative = cytotoxicity was -6.02% (inactive).
In the case of `O=C(/C=C/c1cc(Br)ccc1O)c1ccco1`, the activity change, negative = cytotoxicity is reported as -23.9% (inactive).
With `CN(C)c1ncnc2c1ccn2C1OC(CO)C(O)C1O` (configuration not stated) the activity change, negative = cytotoxicity was -37% (inactive).
For `CCc1cnc(N2[C@H](C#N)[C@H](c3ccc(C#Cc4ccccc4F)cc3)[C@H]2CO)s1`, the activity change, negative = cytotoxicity was -15.3% (inactive).
For `C[C@@H]1CN([C@@H](C)CO)C(=O)c2cccc(NC(=O)CCCCCC(=O)Nc3ccccc3N)c2O[C@@H]1CN(C)Cc1ccc(Oc2ccccc2)cc1`, the activity change, negative = cytotoxicity was -1.35% (inactive).
With `CCNC(=O)[C@@H]1[C@@H](CO)[C@@H]2Cn3c(ccc(C4=CCCCC4)c3=O)[C@H]1N2CC` the activity change, negative = cytotoxicity was -16.5% (inactive).
In the case of `CN(C)[C@@H]1CCC[C@@H]1OC(=O)C(c1ccccc1)c1ccccc1`, the activity change, negative = cytotoxicity is reported as -11.6% (inactive).
For `Cc1ccccc1N=Nc1c(O)n(C)c2ccccc12`, the activity change, negative = cytotoxicity was 2.96% (inactive).
In the case of `CCCNC(=O)[C@@H]1[C@@H](CO)[C@@H]2Cn3c(ccc(-c4ccccc4)c3=O)[C@H]1N2C(=O)CC`, the activity change, negative = cytotoxicity is reported as 22.7% (inactive).
In the case of `Cc1nc2cc(-c3ccc(Cl)cc3)nn2c(C)c1CCC(=O)NC(C)c1ccc2c(c1)OCCO2` (configuration not stated), the activity change, negative = cytotoxicity is reported as -34.9% (inactive).
With `COC(=O)C[C@@H]1CC[C@@H]2[C@@H](COc3ccc(NC(=O)Nc4cccc(C#N)c4)cc3C(=O)N2C)O1` the activity change, negative = cytotoxicity was 16.9% (inactive).
In the case of `COc1ccc(C(CCNCc2ccc(OC(C)C)cc2)C(C)C)cc1` (configuration not stated), the activity change, negative = cytotoxicity is reported as -12.5% (inactive).
For `Cc1ccc2c(c1)C(=O)N1[C@H]3c4cc(Br)ccc4OC[C@@H]3[C@H](c3ccccc3)[C@]1(C)C(=O)N2`, the activity change, negative = cytotoxicity was -13.8% (inactive).
For `Cc1cc(Br)ccc1N=C1C(=O)Nc2ccccc21`, the activity change, negative = cytotoxicity was -16.9% (inactive).
With `CCc1ccc(/C=C2\SC(=S)N(CCCC(=O)NC3=NCCS3)C2=O)cc1` the activity change, negative = cytotoxicity was -17.5% (inactive).
For `COc1cccc(S(=O)(=O)N(C)C[C@H]2OCc3cnnn3CCCC(=O)N([C@@H](C)CO)C[C@H]2C)c1`, the activity change, negative = cytotoxicity was 5% (inactive).
For `Nc1ccc(-c2cc3ccccc3c(=O)o2)cc1`, the activity change, negative = cytotoxicity was -6.69% (inactive).
In the case of `CCCc1nc2ccc(NC(=O)c3cccs3)cc2c(=O)n1Cc1ccccc1Cl`, the activity change, negative = cytotoxicity is reported as -2.41% (inactive).
With `COc1ccc(/C=C2\SC(=O)N(CCCC(=O)Nc3ccc(C(=O)O)cc3)C2=O)cc1` the activity change, negative = cytotoxicity was -14.1% (inactive).
In the case of `O=C1CCC2S/C(=C/Nc3ccc(C(F)(F)F)cc3)C(=O)N12` (configuration not stated), the activity change, negative = cytotoxicity is reported as -9.48% (inactive).
For `O=C1NC(=O)N(CCc2ccc(F)cc2)C(=O)/C1=C/C=C/c1ccccc1`, the activity change, negative = cytotoxicity was -10.7% (inactive).
For `CN(C)c1ccc(-c2ccnc3c2CC(C)(C(=O)NCc2ccco2)O3)cc1` (configuration not stated), the activity change, negative = cytotoxicity was -32.8% (inactive).
In the case of `CCCn1nnc(NC(=S)NC(=O)C(C)(C)C)n1`, the activity change, negative = cytotoxicity is reported as -9.98% (inactive).
For `CCOC(=O)Cc1ccc(NC(=O)c2ccccc2Br)cc1`, the activity change, negative = cytotoxicity was -14.3% (inactive).
With `O=C(O)c1ccc(N/N=C/c2c[nH]c3ccccc23)cc1` the activity change, negative = cytotoxicity was 6.31% (inactive).
For `Nc1nc(N)c2c(ccc3nccc32)[nH]1`, the activity change, negative = cytotoxicity was -30.1% (inactive).
With `CCOc1ccc2nc(NC3=NC(c4ccc(OC)cc4)CC(=O)N3)nc(C)c2c1` (configuration not stated) the activity change, negative = cytotoxicity was -23.2% (inactive).
For `COC(=O)C[C@@H]1CC[C@H]2[C@H](COc3ccc(NC(=O)Nc4cc(C)cc(C)c4)cc3C(=O)N2C)O1`, the activity change, negative = cytotoxicity was -2.27% (inactive).
In the case of `O=C(O)c1ccc(N/N=C/c2c(F)cccc2Cl)cc1`, the activity change, negative = cytotoxicity is reported as -29.9% (inactive).
In the case of `O=c1cc(CN2CCN(Cc3ccccc3)CC2)c2ccc(O)c(O)c2o1`, the activity change, negative = cytotoxicity is reported as 28.6% (inactive).
For `COc1ccc(NS(=O)(=O)c2cc(NC(=O)CNC(=O)c3cccc(OC)c3)ccc2C)cc1`, the activity change, negative = cytotoxicity was -20.6% (inactive).
For `O=C1C(=O)N(CCS(=O)(=O)c2ccccc2)c2ccc(Cl)cc21`, the activity change, negative = cytotoxicity was -2.19% (inactive).
For `C[C@H]1CCCCO[C@H](CN(C)Cc2ccc(C(F)(F)F)cc2)[C@@H](C)CN([C@@H](C)CO)C(=O)c2cc(NC(=O)Nc3ccccc3)ccc2O1`, the activity change, negative = cytotoxicity was 0.212% (inactive).
For `CCOc1ccc(/C=C2\CCc3ccccc3C2=O)cc1`, the activity change, negative = cytotoxicity was -4.04% (inactive).
With `CC(C)NC(=O)N(C)C[C@@H]1Oc2cc(C#Cc3ccc(F)cc3)ccc2S(=O)(=O)N([C@H](C)CO)C[C@H]1C` the activity change, negative = cytotoxicity was -0.81% (inactive).
For `CC(C)c1ccc(OCc2cccc(C(=O)N/N=C/c3cccnc3)c2)cc1`, the activity change, negative = cytotoxicity was -18.1% (inactive).
With `COc1ccc(C(=O)NCCNc2nc3cc(C)cc(C)c3cc2C#N)c(OC)c1` the activity change, negative = cytotoxicity was -16.7% (inactive).
For `COC(=O)C(CC#Cc1ccc2c(c1)[C@]1(C(=O)N2)[C@H](c2ccc(OCCO)cc2)N2[C@H](c3ccccc3)[C@H](c3ccccc3)OC(=O)[C@H]2[C@@H]1C(=O)N1CCN(c2ncccn2)CC1)C(=O)OC`, the activity change, negative = cytotoxicity was 1.09% (inactive).
In the case of `O=c1oc2cc(O)ccc2s1`, the activity change, negative = cytotoxicity is reported as -7.52% (inactive).
With `O=C(Nc1nc(-c2ccc(F)c(F)c2)cs1)c1ccc(OCC2CCCO2)cc1` (configuration not stated) the activity change, negative = cytotoxicity was -9.94% (inactive).
In the case of `CCCC[C@@H]1Cc2[nH][nH]c(=O)c2[C@H](c2ccc3ccccc3c2)O1`, the activity change, negative = cytotoxicity is reported as 16.6% (inactive).
For `Cc1c(Cl)cnc(NC(=O)COC(=O)c2ccc3ncsc3c2)c1Cl`, the activity change, negative = cytotoxicity was 13.6% (inactive).
In the case of `O=C(Cc1nn[nH]n1)c1ccccc1O`, the activity change, negative = cytotoxicity is reported as 1.92% (inactive).
With `CC(=O)ON=C1C=CC(=C(C#N)c2ccccc2)C=C1` the activity change, negative = cytotoxicity was -28.3% (inactive).
In the case of `COc1ccc(/C=C2\Oc3ccccc3C2=O)cc1`, the activity change, negative = cytotoxicity is reported as 7.88% (inactive).
In the case of `O=C(O)c1ccc(N/N=C/c2ccc(OC(=O)c3cccc(Cl)c3)cc2)cc1`, the activity change, negative = cytotoxicity is reported as -29.8% (inactive).
In the case of `COC(=O)c1c(C)[nH]c(/C=N/Nc2ccccc2)c1C`, the activity change, negative = cytotoxicity is reported as -4.63% (inactive).
In the case of `O=C(Nc1ccc(OC(=O)N2CCCCC2)cc1)N1CCOCC1`, the activity change, negative = cytotoxicity is reported as -2.87% (inactive).
In the case of `CC(C)(C)c1ccc(Oc2ccc(NC(=O)C3CC=CCC3C(=O)O)cc2)cc1` (configuration not stated), the activity change, negative = cytotoxicity is reported as -16.1% (inactive).
With `COc1ccc2oc(C(=O)NCCc3ccccc3)c(C)c2c1` the activity change, negative = cytotoxicity was -22.1% (inactive).
In the case of `O=C(N/N=C/c1cccs1)c1n[nH]c2c1CCCC2`, the activity change, negative = cytotoxicity is reported as -10.2% (inactive).
In the case of `O=C(N/N=C/c1ccc[nH]1)c1cc(-c2ccc(Cl)cc2)nc2ccccc12`, the activity change, negative = cytotoxicity is reported as -26.6% (inactive).
For `C[C@@H]1CCCCO[C@H](CN(C)Cc2ccc(C(=O)Nc3ccccc3N)cc2)[C@@H](C)CN([C@@H](C)CO)C(=O)c2cc(NS(=O)(=O)c3ccc(Cl)cc3)ccc2O1`, the activity change, negative = cytotoxicity was -25.9% (inactive).
For `Cc1ccc(/C=C2\SC(=S)N(CCCC(=O)NNC(=O)c3ccccc3O)C2=O)cc1`, the activity change, negative = cytotoxicity was -14.6% (inactive).
With `COc1ccc(CCCNC(=O)C2Cc3c(-c4ccc5c(c4)OCO5)ccnc3O2)cc1` (configuration not stated) the activity change, negative = cytotoxicity was -7% (inactive).
In the case of `C[C@H](CO)N1C[C@H](C)[C@H](CN(C)Cc2ccc(C(=O)Nc3ccccc3N)cc2)Oc2ccc(NS(=O)(=O)c3cccs3)cc2C1=O`, the activity change, negative = cytotoxicity is reported as -25.3% (inactive).
With `C[C@@H]1CN([C@@H](C)CO)C(=O)Cc2cc(NC(=O)C3CCCCC3)ccc2O[C@H]1CN(C)Cc1ccc(C(=O)Nc2ccccc2N)cc1` the activity change, negative = cytotoxicity was 7.97% (inactive).
With `C(=Cc1c[nH]c2ccccc12)c1ccc2ccccc2n1` the activity change, negative = cytotoxicity was -26.3% (inactive).
In the case of `CCn1c(/C=N/NC(=O)c2ccc(OC)cc2)nc2ccccc21`, the activity change, negative = cytotoxicity is reported as -10.9% (inactive).
For `O=C(COC(=O)c1ccc[nH]c1=O)Nc1ccc(N2CCCCC2)cc1`, the activity change, negative = cytotoxicity was -10.3% (inactive).
For `CC(C)c1ccccc1NC(=O)COC(=O)CCN1C(=O)/C(=C\C=C\c2ccccc2)SC1=S`, the activity change, negative = cytotoxicity was -10.7% (inactive).
For `C[C@H](CO)N1C[C@H](C)[C@H](CN(C)CC2CCCCC2)Oc2ccc(NC(=O)Nc3cccc4ccccc34)cc2C1=O`, the activity change, negative = cytotoxicity was -16.8% (inactive).
In the case of `CN=c1scc(-c2ccccc2F)n1/N=C/c1ccc(O)c(O)c1O`, the activity change, negative = cytotoxicity is reported as -25.3% (inactive).
For `COc1ccc(S(=O)(=O)N=Nc2c(O)[nH]c3ccccc23)cc1`, the activity change, negative = cytotoxicity was 16.2% (inactive).
